From US20210255193A1, “LYSINE REACTIVE PROBES AND USES THEREOF” (The Scripps Research Institute, priority 2017, published 2021)

Key:
Experiment in all cases: competitive isoTOP-ABPP
Type in all cases: binding
[1] = biological target: T1, ATP6V1F V-type proton ATPase subunit F (Homo sapiens, UniProt Q16864); conditions: for isoTOP-ABPP ratio (R) at liganded lysine Q16864_K6: sol, 231
T1 construct: isoTOP-ABPP experiments performed in cell lysates (in vitro); endogenous in cells; host or cells: soluble proteome of human cancer cell lines (MDA-MB-231; Ramos and Jurkat also prepared)
T1 sequence (Q16864 whole entry): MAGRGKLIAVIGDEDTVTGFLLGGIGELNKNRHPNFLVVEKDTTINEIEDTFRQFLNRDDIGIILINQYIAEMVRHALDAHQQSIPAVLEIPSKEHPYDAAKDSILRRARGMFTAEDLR
Summary of the method: (§1)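 Readout: isotopic light/heavy MS1 peak-area ratio (R, DMSO heavy over compound light), median across peptides sharing a modified lysine. Lysate received fragment (activated esters 50 μM, guanidinylating agents 100 μM final) or DMSO, then 0.1 mM STP-alkyne probe for 1 h at ambient temperature.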

[2] = biological target: T2, LRRC20 Leucine-rich repeat-containing protein 20 (Homo sapiens, UniProt Q8TCA0); conditions: for isoTOP-ABPP ratio (R) at liganded lysine Q8TCA0_K43: sol, 231
T2 construct: isoTOP-ABPP experiments performed in cell lysates (in vitro); endogenous in cells; host or cells: soluble proteome of human cancer cell lines (MDA-MB-231; Ramos and Jurkat also prepared)
T2 sequence (Q8TCA0 1-184): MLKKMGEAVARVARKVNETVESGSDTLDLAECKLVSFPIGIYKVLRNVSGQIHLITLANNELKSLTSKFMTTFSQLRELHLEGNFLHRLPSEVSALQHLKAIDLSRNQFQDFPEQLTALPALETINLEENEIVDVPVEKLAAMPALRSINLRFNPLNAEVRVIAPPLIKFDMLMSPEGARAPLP
Summary of the method: as §1

TTR Transthyretin = biological target: T3, TTR Transthyretin (Homo sapiens, UniProt P02766); conditions: for isoTOP-ABPP ratio (R) at liganded lysine P02766_K35: sol, 231
T3 construct: isoTOP-ABPP experiments performed in cell lysates (in vitro); endogenous in cells; host or cells: MDA-MB-231 soluble lysate
Summary of the method: as §1

[3] = biological target: T4, TSTA3 GDP-L-fucose synthase (Homo sapiens, UniProt Q13630); conditions: 50 uM, 231 sol, in vitro; for R value (DMSO/fragment) for probe 1 labeling: Q13630_K108
T4 construct: isoTOP-ABPP experiments performed in cell lysates (in vitro); endogenous in cells; host or cells: soluble proteome of human cancer cell lines (MDA-MB-231, Ramos, Jurkat)
T4 sequence (Q13630 whole entry, the tested form may be a part): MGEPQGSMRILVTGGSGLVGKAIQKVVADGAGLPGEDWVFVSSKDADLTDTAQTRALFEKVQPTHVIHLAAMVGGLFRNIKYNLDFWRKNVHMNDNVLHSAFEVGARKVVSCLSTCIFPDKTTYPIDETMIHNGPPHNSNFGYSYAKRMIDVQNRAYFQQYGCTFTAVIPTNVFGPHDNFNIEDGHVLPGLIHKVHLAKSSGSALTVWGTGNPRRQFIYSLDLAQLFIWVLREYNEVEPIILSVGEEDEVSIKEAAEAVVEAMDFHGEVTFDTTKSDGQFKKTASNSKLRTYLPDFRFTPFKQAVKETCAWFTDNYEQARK
Summary of the method: as §1

[4] = biological target: T5, EEF1G Elongation factor 1-gamma (Homo sapiens, UniProt P26641); conditions: for isoTOP-ABPP reactivity ratio at lysine P26641_K227: 231 sol
T5 construct: isoTOP-ABPP experiments performed in cell lysates (in vitro); endogenous in cells; host or cells: soluble proteome of human cancer cell lines (MDA-MB-231; Ramos and Jurkat also prepared)
T5 sequence (P26641 whole entry): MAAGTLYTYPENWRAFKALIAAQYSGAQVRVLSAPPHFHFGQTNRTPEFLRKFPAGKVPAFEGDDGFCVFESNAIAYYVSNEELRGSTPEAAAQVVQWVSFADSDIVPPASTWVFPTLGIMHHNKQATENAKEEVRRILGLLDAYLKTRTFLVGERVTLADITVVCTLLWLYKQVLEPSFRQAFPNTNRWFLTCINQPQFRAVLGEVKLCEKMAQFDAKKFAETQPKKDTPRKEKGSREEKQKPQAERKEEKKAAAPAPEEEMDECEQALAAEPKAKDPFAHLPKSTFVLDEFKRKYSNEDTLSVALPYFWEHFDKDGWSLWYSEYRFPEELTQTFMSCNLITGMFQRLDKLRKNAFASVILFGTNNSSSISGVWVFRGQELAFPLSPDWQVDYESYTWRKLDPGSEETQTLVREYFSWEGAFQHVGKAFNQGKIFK
Summary of the method: as §1

[5] = biological target: T6, NLN Neurolysin, mitochondrial (Homo sapiens, UniProt Q9BYT8); conditions: 50 uM, in vitro
T6 construct: isoTOP-ABPP experiments performed in cell lysates (in vitro); endogenous in cells; host or cells: soluble proteome of human cancer cell lines (MDA-MB-231; Ramos and Jurkat also prepared)
T6 sequence (Q9BYT8 38-704): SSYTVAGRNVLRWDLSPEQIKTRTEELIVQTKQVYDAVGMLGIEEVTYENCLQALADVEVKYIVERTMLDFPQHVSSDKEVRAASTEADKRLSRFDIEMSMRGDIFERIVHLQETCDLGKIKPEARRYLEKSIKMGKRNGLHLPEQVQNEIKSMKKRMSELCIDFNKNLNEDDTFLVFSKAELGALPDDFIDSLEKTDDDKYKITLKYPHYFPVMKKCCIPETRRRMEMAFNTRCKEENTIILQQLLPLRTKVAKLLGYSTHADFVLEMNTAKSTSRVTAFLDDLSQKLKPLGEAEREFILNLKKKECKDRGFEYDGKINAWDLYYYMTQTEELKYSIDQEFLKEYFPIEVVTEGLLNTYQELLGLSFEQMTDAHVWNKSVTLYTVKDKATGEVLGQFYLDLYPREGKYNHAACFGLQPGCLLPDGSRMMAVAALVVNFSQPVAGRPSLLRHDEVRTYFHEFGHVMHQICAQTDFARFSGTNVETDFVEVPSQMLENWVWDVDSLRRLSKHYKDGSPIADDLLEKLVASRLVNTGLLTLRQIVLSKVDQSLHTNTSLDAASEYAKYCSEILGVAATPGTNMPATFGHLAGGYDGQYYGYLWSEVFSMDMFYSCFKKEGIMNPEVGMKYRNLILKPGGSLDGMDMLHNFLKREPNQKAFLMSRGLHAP
Summary of the method: as §1

[6] = biological target: T7, NUDT22 Nucleoside diphosphate-linked moiety X motif 22 (Homo sapiens, UniProt Q9BRQ3); conditions: 50 uM, 231 sol, in vitro
T7 construct: isoTOP-ABPP experiments performed in cell lysates (in vitro); endogenous in cells; host or cells: soluble proteome of human cancer cell lines (MDA-MB-231; Ramos and Jurkat also prepared)
T7 sequence (Q9BRQ3 1-303): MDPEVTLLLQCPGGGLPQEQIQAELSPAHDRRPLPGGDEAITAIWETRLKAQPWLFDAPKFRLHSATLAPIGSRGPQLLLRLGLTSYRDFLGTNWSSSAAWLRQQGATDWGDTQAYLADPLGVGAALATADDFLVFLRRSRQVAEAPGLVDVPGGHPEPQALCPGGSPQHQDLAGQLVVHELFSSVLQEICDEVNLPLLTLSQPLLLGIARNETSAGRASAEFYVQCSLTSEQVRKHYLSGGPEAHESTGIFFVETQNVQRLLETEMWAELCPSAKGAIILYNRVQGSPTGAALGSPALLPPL
Summary of the method: as §1

[7] = biological target: T8, CDK2 Cyclin-dependent kinase 2 (Homo sapiens, UniProt P24941); conditions: 50 uM, in vitro, sol, 231
T8 construct: isoTOP-ABPP experiments performed in cell lysates (in vitro); endogenous in cells; host or cells: soluble proteome of human cancer cell lines (MDA-MB-231; Ramos and Jurkat also prepared)
Summary of the method: as §1

## O=C(CCc1coc2cc(F)ccc2c1=O)Oc1ccc([N+](=O)[O-])cc1[N+](=O)[O-] [fragment 36, 2,4-Dinitrophenyl 3-(7-fluoro-4-oxo-4H-chromen-3-yl)propanoate]
[1]; 50 uM, in vitro
  isoTOP-ABPP ratio (R) at liganded lysine Q16864_K6: 1.0
[2]; 50 uM, in vitro
  isoTOP-ABPP ratio (R) at liganded lysine Q8TCA0_K43: 1.1
TTR Transthyretin; 50 uM, in vitro
  isoTOP-ABPP ratio (R) at liganded lysine P02766_K35: 2.4

## O=C(CCc1coc2cc(F)ccc2c1=O)Oc1c(F)c(F)c(F)c(F)c1F [fragment 26, Pentafluorophenyl 3-(7-fluoro-4-oxo-4H-chromen-3-yl)propanoate]
[3]
  isoTOP-ABPP reactivity ratio at lysine Q13630_K108: 1.4
[2]; 50 uM, 231 sol, in vitro
  isoTOP-ABPP reactivity ratio at lysine Q8TCA0_K43: 0.8
[4]; 50 uM, in vitro
  isoTOP-ABPP reactivity ratio at lysine P26641_K227: 0.8
[5]; 231 sol
  isoTOP-ABPP reactivity ratio at lysine Q9BYT8_K253: 1.2
[6]
  isoTOP-ABPP reactivity ratio at lysine Q9BRQ3_K60: 0.8

## O=C(Oc1ccc([N+](=O)[O-])cc1[N+](=O)[O-])C1CCN(C(=O)OCc2ccccc2)CC1 [fragment 34, 1-Benzyl 4-(2,4-dinitrophenyl) piperidine-1,4-dicarboxylate]
[7]
  isoTOP-ABPP ratio (R) at liganded lysine P24941_K33: 1.0
TTR Transthyretin; 50 uM, in vitro
  isoTOP-ABPP ratio (R) at liganded lysine P02766_K35: 2.2

## NC(=O)c1cc(C(F)(F)F)cc(C(F)(F)F)c1 [fragment 51, reference compound]
[4]; 50 uM_231_sol_in vitro
  isoTOP-ABPP ratio, lysine P26641_K227: 0.9

## O=C(CN1C(=O)c2ccccc2C1=O)Oc1c(F)c(F)c(F)c(F)c1F [fragment 27, Pentafluorophenyl 2-(1,3-dioxoisoindolin-2-yl)acetate]
[3]
  isoTOP-ABPP reactivity ratio at lysine Q13630_K108: 4.6
[4]; 50 uM, in vitro
  isoTOP-ABPP reactivity ratio at lysine P26641_K227: 1.2
[6]
  isoTOP-ABPP reactivity ratio at lysine Q9BRQ3_K60: 1.2

## O=C(CCc1cn(-c2ccccc2)nc1-c1ccccc1)Oc1c(F)c(F)c(F)c(F)c1F [fragment 19, Pentafluorophenyl 3-(1,3-diphenyl-1H-pyrazol-4-yl)propanoate]
[3]
  R value (DMSO/fragment) for probe 1 labeling: 0.8
[2]; Q8TCA0_K43, 50 uM, 231 sol, in vitro
  R value (DMSO/fragment) for probe 1 labeling: 1.1
[5]; Q9BYT8_K253, 231 sol
  R value (DMSO/fragment) for probe 1 labeling: 1.0
[6]; Q9BRQ3_K60
  R value (DMSO/fragment) for probe 1 labeling: 0.9

## O=C(Oc1ccc([N+](=O)[O-])cc1[N+](=O)[O-])C(c1ccccc1)c1ccccc1 [fragment 30, 2,4-Dinitrophenyl 2,2-diphenylacetate]
[1]; 50 uM, 231 sol, in vitro
  isoTOP-ABPP reactivity ratio at lysine Q16864_K6: 20.0
[2]; 50 uM, 231 sol, in vitro
  isoTOP-ABPP reactivity ratio at lysine Q8TCA0_K43: 1.5
[4]; 50 uM, in vitro
  isoTOP-ABPP reactivity ratio at lysine P26641_K227: 0.9
[5]; 231 sol
  isoTOP-ABPP reactivity ratio at lysine Q9BYT8_K253: 1.3
TTR Transthyretin; 50 uM, 231 sol, in vitro
  isoTOP-ABPP reactivity ratio at lysine P02766_K35: 1.5

## O=C(Oc1ccc([N+](=O)[O-])cc1[N+](=O)[O-])c1cc(C(F)(F)F)cc(C(F)(F)F)c1 [fragment 31, 2,4-Dinitrophenyl 3,5-bis(trifluoromethyl)benzoate]
[4]; 50 uM, in vitro
  isoTOP-ABPP reactivity ratio at lysine P26641_K227: 2.2
[5]; 231 sol
  isoTOP-ABPP reactivity ratio at lysine Q9BYT8_K253: 1.5
TTR Transthyretin; 50 uM, 231 sol, in vitro
  isoTOP-ABPP reactivity ratio at lysine P02766_K35: 16.1
TTR Transthyretin; TTR K35
  targeting of K35: preferentially targeted
[6]
  isoTOP-ABPP reactivity ratio at lysine Q9BRQ3_K60: 1.1

## CC(=O)Oc1ccc([N+](=O)[O-])cc1[N+](=O)[O-] [fragment 43, 2,4-Dinitrophenyl acetate]
[1]; 50 uM, in vitro
  isoTOP-ABPP ratio (R) at liganded lysine Q16864_K6: 20.0
[2]; 50 uM, in vitro
  isoTOP-ABPP ratio (R) at liganded lysine Q8TCA0_K43: 1.2
[4]; 50 uM, in vitro, sol, 231
  isoTOP-ABPP ratio (R) at liganded lysine P26641_K227: 2.3
[5]; sol, 231
  isoTOP-ABPP ratio (R) at liganded lysine Q9BYT8_K253: 0.8

## COC(=O)NC(=NC(=O)OCC1c2ccccc2-c2ccccc21)n1cccn1 [fragment 49, N-Methoxycarbonyl-N′-9-fluorenylmethoxycarbonyl-pyrazole-1-carboxamidine]
[1]; 100 uM_231_sol_in vitro
  isoTOP-ABPP ratio, lysine Q16864_K6: 1.3
[2]; 100 uM_231_sol_in vitro
  isoTOP-ABPP ratio, lysine Q8TCA0_K43: 14.0

## Cn1cc(CC(=O)Oc2ccc([N+](=O)[O-])cc2[N+](=O)[O-])c2ccccc21 [fragment 32, 2,4-Dinitrophenyl 2-(1-methyl-1H-indol-3-yl)acetate]
[2]; 50 uM, 231 sol, in vitro
  isoTOP-ABPP reactivity ratio at lysine Q8TCA0_K43: 1.6
[5]; 231 sol
  isoTOP-ABPP reactivity ratio at lysine Q9BYT8_K253: 1.7
TTR Transthyretin; 50 uM, 231 sol, in vitro
  isoTOP-ABPP reactivity ratio at lysine P02766_K35: 3.1
[6]
  isoTOP-ABPP reactivity ratio at lysine Q9BRQ3_K60: 20.0

## COc1cc(CCC(=O)Oc2c(F)c(F)c(F)c(F)c2F)cc(OC)c1OC [fragment 23, Pentafluorophenyl 3-(3,4,5-trimethoxyphenyl)propanoate]
[3]
  R value (DMSO/fragment) for probe 1 labeling: 1.0
TTR Transthyretin; P02766_K35, 50 uM, 231 sol, in vitro
  R value (DMSO/fragment) for probe 1 labeling: 1.0
